Results on 3 molecules are retold here after patent publication US12264173B2 (GILEAD SCIENCES, INC., priority 2020, dated 2025).

Holding throughout (format): cell-based
Assay [1] has as its system hMPV strain CAN98-75 (gr. B2). As to the kind of experiment: hMPV B2 EC50 in LLC-MK2 cells. The conditions noted are these: read-out: hMPVB2 LLC-MK2 EC50. How it is done: (§1) LLC-MK2 cells were seeded in 24-well plates at 90% confluence in MEM+10% FBS. Plates were washed with PBS and 500 μL of hMPV (strains CAN99-81 (gr. A1), CAN97-83 (gr. A2), CAN97-82 (B1) or CAN98-75 (gr. B2), containing 40 PFU/mL with the different dilutions of the 4 compounds were added on the cells for 1 h 30 min at 37° C., 5% CO2. After the adsorption period, the medium was removed and cells were washed with PBS. An overlay of Opti-MEM 2×+methycellulose 1.6% (1:1) containing the same concentrations of compounds as in the adsorption period was added to the wells. A positive control consisting of ribavirin was also tested with concentrations ranging from 1 μM to 100 μM. The plates were incubated at 37° C., 5% CO2 for 3-5 days. After the incubation period, the cells were fixed with 7% formalin for 1 h at room temperature. hMPV titers were determined using a Mab specific for the F protein (clone hMPV24, ABD Serotec, Inc.) diluted 1/10 000 and a second anti-mouse IgG HRP antibody (GeneScriptCorp) diluted 1/2500. Finally, KPL True Blue was used to reveal infected cells.

A further assay deals with HCV Rep 1B. The assay is described as follows: HCV Rep 1B EC50 (replicon luciferase). To be noted: Hepatitis C virus. How it is done:
(§2) Compounds were serially diluted in ten steps of 1:3 dilutions in 384-well plates. All serial dilutions were performed in four replicates per compound within the same 384-well plate. […] To each well of a black polystyrene 384-well plate (Greiner Bio-one, Monroe, NC), 90 μL of cell culture medium (without Geneticin) containing 2000 suspended HCV replicon cells was added with a Biotek μFlow workstation. For compound transfer into cell culture plates, 0.4 μL of compound solution from the compound serial dilution plate was transferred to the cell culture plate on a Biomek FX workstation. The DMSO concentration in the final assay wells was 0.44%. The plates were incubated for 3 days at 37° C. with 5% CO2 and 85% humidity. The HCV replicon assay was a multiplex assay, able to assess both cytotoxicity and antireplicon activity from the same well. The CC50 assay was performed first. The media in the 384-well cell culture plate was aspirated, and the wells were washed four times with 100 μL of PBS each, using a Biotek ELX405 plate washer. A volume of 50 μL of a solution containing 400 nM calcein AM (Anaspec, Fremont, CA) in 1×PBS was added to each well of the plate with a Biotek μFlow workstation. The plate was incubated for 30 min at room temperature before the fluorescence signal (excitation 490 nm, emission 520 nm) was measured with a Perkin-Elmer Envision plate reader. The EC50 assay was performed in the same wells as the CC50 assay. The calcein-PBS solution in the 384-well cell culture plate was aspirated with a Biotek ELX405 plate washer. A volume of 20 μL of Dual-Glo luciferase buffer (Promega, Madison, WI) was added to each well of the plate with a Biotek μFlow Workstation. The plate was incubated for 10 min at room temperature. A volume of 20 μL of a solution containing a 1:100 mixture of Dual-Glo Stop & Glo substrate (Promega, Madison, WI) and Dual-Glo Stop & Glo buffer (Promega, Madison, WI) was added to each well of the plate with a Biotek μFlow Workstation. The plate was then incubated at room temperature for 10 min before the luminescence signal was measured with a Perkin-Elmer Envision Plate Reader.
A general note: In antiviral work, replicon cells carry a viral genome segment that copies itself.

The test system of assay [2] is hMPV strain CAN99-81 (gr. A1). The assay is described as follows: hMPV A1 EC50 in LLC-MK2 cells. To be noted: read-out: hMPVA1 LLC-MK2 EC50. How it is done:
as §1

Assay [3] concerns Dengue 2, New Guinea strain (NGC). As to the kind of experiment: DENV moDC EC50 (qPCR in human monocyte-derived dendritic cells). To be noted: Dengue virus, Dendritic cell; Table 3; human moDCs, 48 hours. How it is done:
Human monocyte-derived dendritic cells (moDCs) were derived from CD14+ monocytes (AllCells) cultured in Human Mo-DC Differentiation medium containing GM-CSF and IL-4 (Miltenyi Biotec). On day 7, moDCs were harvested by mechanical disruption, washed and suspended in serum-free RPMI. moDCs were infected with Vero-derived Dengue 2, New Guinea strain (NGC) at a MOI=0.1 for two hours in serum-free RPMI with gentle agitation at 37° C. Cells were washed and resuspended in 10% serum-containing RPMI (Gibco, supplemented with sodium pyruvate, NEAA, Penicillin-Streptomycin). […] were plated in triplicate in 96-well plates with compounds dispensed at graded doses (Hewlett-Packard D300 Digital Dispenser). All wells were normalized to 0.25% DMSO. At 48 hours, cells were washed with 1×PBS and all supernatants removed. Total RNA was extracted using RNEasy 96 plates (Qiagen) and used to generate first-strand cDNA using XLT cDNA 5× Supermix (QuantaBio). cDNA was used as a template in a Taqman qPCR duplex reaction specific to DENV2 viral and GAPDH gene expression. EC50 values were determined using Prism Graphpad software, with normalization to a positive control and no compound negative control wells.

The test system of assay [4] is hMPV strain CAN97-83 (gr. A2). As to the kind of experiment: hMPV A2 EC50 in LLC-MK2 cells. The conditions noted are these: read-out: hMPVA2 LLC-MK2 EC50. On the procedure: as §1
In the next assay the test system is HRV16. As to the kind of experiment: HRV16 HeLa EC50 (cytopathic effect in H1-HeLa cells). Summed up:
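Read-out is luminescent cell viability (CellTiter-Glo) after 96 h of infection at 33 °C, scaled between uninfected and infected-untreated wells. Before infection with titrated virus, compounds went onto H1-HeLa cells as triplicate 3-fold dilution series.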
(In general: Damage to the host cells serves as the signal in cytopathic effect assays.)

Assay [5] deals with hMPV strain CAN97-82 (B1). The assay is described as follows: hMPV B1 EC50 in LLC-MK2 cells. To be noted: read-out: hMPVB1 LLC-MK2 EC50. On the procedure: as §1
In another assay the test system is HCV Rep 2A. As to the kind of experiment: HCV Rep 2A EC50 (replicon luciferase). To be noted: Hepatitis C virus. How it is done:
as §2

Where [6] appears, read: 72 h, Table 4, replicon cells, 3 days, read-out: HCV Rep 1B EC50.
[7] abbreviates: 96 h, Table 3, H1-HeLa cells, 96 h, read-out: HRV16 HeLa EC50.
The mark [8] stands for this setting: 72 h, Table 4, replicon cells, 3 days, read-out: HCV Rep 2A EC50.

As usually defined, the EC50 is the concentration giving half of the maximal effect.

Read-outs that look alike come from different tables or passages of the source.

On to `COC(=O)[C@H](C)N[P@](=O)(OC[C@@]1(C#N)O[C@@H](c2ccc3c(N)ncnn23)[C@H](OC(=O)C(C)C)[C@@H]1OC(=O)C(C)C)Oc1ccccc1` (single isomer, unassigned) [Example 140], for which the concentration giving a half-maximal response (EC50) in assay [1] was determined as 230 nM; in the assay on HCV Rep 1B (setting [6]) it was 369 nM; in the assay with HCV Rep 1B (read-out: HCV Rep1B EC50), 368 nM; in assay [2], 160 nM; in assay [3], 90 nM; in assay [4], 190 nM. The EC50 in the assay with HRV16 (setting [7]) is 83 nM; in the assay with HRV16 (HeLa, read-out: HRV16 HeLa EC50, Table 5 comparative activity, 2',3'-OH vs -OC(O)iPr) it was 83 nM; in assay [5], 210 nM; in the assay on HCV Rep 2A (setting [8]) it was 542 nM; in the assay with HCV Rep 2A (read-out: HCV Rep2A EC50), 542 nM.
For `CCC(=O)O[C@H]1[C@H](c2ccc3c(N)ncnn23)O[C@](C#N)(CO[P@@](=O)(N[C@@H](C)C(=O)OC2CCCCC2)Oc2ccccc2)[C@H]1OC(=O)CC` [Example 82, (2R,3S,4S,5S)-5-(4-aminopyrrolo[2,1-f][1,2,4]triazin-7-yl)-2-cyano-2-((((S)-(((S)-1-(cyclohexyloxy)-1-oxopropan-2-yl)amino)(phenoxy)phosphoryl)oxy)methyl) tetrahydrofuran-3,4-diyl dipropionate], the EC50 with HCV Rep 1B (setting [6]) is 359 nM; in assay [3], 786 nM; with HRV16 (setting [7]) it was 201 nM; in the assay with HCV Rep 2A (setting [8]) it was 813 nM.
The corresponding values for `CCC(=O)O[C@H]1[C@H](c2ccc3c(N)ncnn23)O[C@](C#N)(CO[P@@](=O)(N[C@@H](C)C(=O)OC(C)C)Oc2ccccc2)[C@H]1OC(=O)CC` [Example 90, (2R,3S,4S,5S)-5-(4-Aminopyrrolo[2,1-f][1,2,4]triazin-7-yl)-2-cyano-2-((((S)-(((S)-1-isopropoxy-1-oxopropan-2-yl)amino)(phenoxy)phosphoryl)oxy)methyl) tetrahydrofuran-3,4-diyl dipropionate] are 579 nM, 677 nM, 259 nM and 1140 nM.
